Laboratory results from PubChem BioAssay AID220 (DTP/NCI, 2004).
Several values for one entry are separate records, joined by “and”; a condition that tells them apart may be missing. Equal entries are not always repeated. Inconclusive results are not listed.

System: CD8F1 mice, subcutaneous mammary adenocarcinoma, T/C%
Assay: NCI In Vivo Anticancer Drug Screen. Data for tumor model Mammary Adenocarcinoma CD8F1 (subcutaneous) in CD8F1
Details: higher = larger tumour
Procedure, shortened: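 Antitumor activity is assessed in transplantable-tumor mice by comparing the treated group with a vehicle-treated control group. Survival or tumor size serves as the measure, reported as T divided by C.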

[1] = endpoint: median tumor weight (est.), dose: 25.0 mg/kg/injection, schedule: Q07DX004 (ip), vehicle: saline
[2] = endpoint: median tumor weight (est.), dose: 50.0 mg/kg/injection, schedule: Q07DX004 (ip), vehicle: saline
[3] = endpoint: median tumor weight (est.), dose: 12.5 mg/kg/injection, schedule: Q07DX005 (ip), vehicle: saline
[4] = endpoint: median tumor weight (est.), dose: 25.0 mg/kg/injection, schedule: Q07DX005 (ip), vehicle: saline
[5] = endpoint: median tumor weight (est.), dose: 50.0 mg/kg/injection, schedule: Q07DX005 (ip), vehicle: saline with Tween-80
[6] = endpoint: median tumor weight (est.), dose: 100.0 mg/kg/injection, schedule: Q07DX005 (ip), vehicle: saline with Tween-80
[7] = endpoint: median tumor weight change, dose: 50.0 mg/kg/injection, schedule: Q01DX001 (ip), vehicle: saline with Tween-80
[8] = endpoint: median tumor weight change, dose: 200.0 mg/kg/injection, schedule: Q01DX001 (ip), vehicle: saline with Tween-80

`NC1=NCN(C2OC(CO)C(O)C2O)C(=O)N1` (stereo unspecified) was tested, and the T/C [1] was 74 % of control, the T/C (endpoint: median tumor weight (est.), dose: 25.0 mg/kg/injection, schedule: Q07DX005 (ip), vehicle: suspension in saline) was 59 % of control and the T/C [2] was 76 % of control. For the same compound, the T/C (endpoint: median tumor weight (est.), dose: 50.0 mg/kg/injection, schedule: Q07DX005 (ip), vehicle: suspension in saline) was 45 % of control, the T/C (endpoint: median tumor weight (est.), dose: 100.0 mg/kg/injection, schedule: Q07DX004 (ip), vehicle: saline) was 107 % of control and the T/C (endpoint: median tumor weight (est.), dose: 100.0 mg/kg/injection, schedule: Q07DX005 (ip), vehicle: suspension in saline) was 56 % of control. The T/C (endpoint: median tumor weight (est.), dose: 200.0 mg/kg/injection, schedule: Q07DX004 (ip), vehicle: saline) was 72 % of control, the T/C (endpoint: median tumor weight (est.), dose: 200.0 mg/kg/injection, schedule: Q07DX005 (ip), vehicle: suspension in saline) was 61 % of control and the T/C (endpoint: median tumor weight (est.), dose: 400.0 mg/kg/injection, schedule: Q07DX004 (ip), vehicle: saline) was 49 % of control. For the same compound, the T/C (endpoint: median tumor weight (est.), dose: 400.0 mg/kg/injection, schedule: Q07DX005 (ip), vehicle: suspension in saline) was 34 % of control, the T/C (endpoint: median tumor weight (est.), dose: 800.0 mg/kg/injection, schedule: Q07DX004 (ip), vehicle: saline) was 35 % of control and the T/C (endpoint: median tumor weight (est.), dose: 800.0 mg/kg/injection, schedule: Q07DX005 (ip), vehicle: suspension in saline) was 13 % of control.

With `O=[N+]([O-])O.[Ga]` the T/C (endpoint: mean tumor weight, dose: 75.0 mg/kg/injection, schedule: Q01DX009 (ip), vehicle: saline) was 120 % of control, the T/C (endpoint: median tumor weight (est.), dose: 6.25 mg/kg/injection, schedule: Q07DX005 (ip), vehicle: saline) was 94 % of control and the T/C [3] was 114 % of control. The T/C (endpoint: median tumor weight (est.), dose: 25.0 mg/kg/injection, schedule: Q04DX005 (ip), vehicle: saline) was 91 % of control, the T/C [1] was 120 % of control and the T/C [4] was 120 % of control. The T/C [2] was 184 % of control and the T/C (endpoint: median tumor weight (est.), dose: 100.0 mg/kg/injection, schedule: Q04DX005 (ip), vehicle: saline) was 153 % of control.

With `OCC1OC(n2cnc3c(=S)nc[nH]c32)C(O)C1O` (stereo unspecified) the T/C [5] was 23 % of control, the T/C [6] was 34 % of control and the T/C (endpoint: median tumor weight (est.), dose: 200.0 mg/kg/injection, schedule: Q07DX005 (ip), vehicle: saline with Tween-80) was 13 % of control and 37 % of control. For the same compound, the T/C (endpoint: median tumor weight (est.), dose: 400.0 mg/kg/injection, schedule: Q07DX005 (ip), vehicle: saline with Tween-80) was 8 % of control and 15 % of control, the T/C (endpoint: median tumor weight change, dose: 25.0 mg/kg/injection, schedule: Q01DX001 (ip), vehicle: saline with Tween-80) was 73 % of control and the T/C [7] was 71 % of control. For the same compound, the T/C (endpoint: median tumor weight change, dose: 100.0 mg/kg/injection, schedule: Q01DX001 (ip), vehicle: saline with Tween-80) was 78 % of control, the T/C (endpoint: median tumor weight change, dose: 125.0 mg/kg/injection, schedule: Q01DX001 (ip), vehicle: saline) was 78 % of control and the T/C [8] was 56 % of control. The T/C (endpoint: median tumor weight change, dose: 250.0 mg/kg/injection, schedule: Q01DX001 (ip), vehicle: Klucel (hydroxypropylcellulose) (HPC)) was 89 % of control, the T/C (endpoint: median tumor weight change, dose: 250.0 mg/kg/injection, schedule: Q01DX001 (ip), vehicle: saline) was 72 % of control and the T/C (endpoint: median tumor weight change, dose: 400.0 mg/kg/injection, schedule: Q01DX001 (ip), vehicle: saline with Tween-80) was 60 % of control. The T/C (endpoint: median tumor weight change, dose: 500.0 mg/kg/injection, schedule: Q01DX001 (ip), vehicle: Klucel (hydroxypropylcellulose) (HPC)) was 79 % of control, the T/C (endpoint: median tumor weight change, dose: 500.0 mg/kg/injection, schedule: Q01DX001 (ip), vehicle: saline) was 97 % of control and the T/C (endpoint: median tumor weight change, dose: 1000.0 mg/kg/injection, schedule: Q01DX001 (ip), vehicle: Klucel (hydroxypropylcellulose) (HPC)) was 52 % of control. The T/C (endpoint: median tumor weight change, dose: 1000.0 mg/kg/injection, schedule: Q01DX001 (ip), vehicle: saline) was 53 % of control, the T/C (endpoint: median tumor weight change, dose: 2000.0 mg/kg/injection, schedule: Q01DX001 (ip), vehicle: Klucel (hydroxypropylcellulose) (HPC)) was 26 % of control and the T/C (endpoint: median tumor weight change, dose: 2000.0 mg/kg/injection, schedule: Q01DX001 (ip), vehicle: saline) was 67 % of control.

For `C/C=C(\C)c1cc(=O)c2c(C)cc3c(c2o1)C(=O)c1c(O)c(C2CC(C)(N(C)C)C(OC(C)=O)C(C)O2)cc(C2CC(N(C)C)C(O)C(C)O2)c1C3=O` (stereo unspecified), the T/C (endpoint: median tumor weight (est.), dose: 0.15 mg/kg/injection, schedule: Q07DX005 (ip), vehicle: saline) was 157 % of control, the T/C (endpoint: median tumor weight (est.), dose: 0.31 mg/kg/injection, schedule: Q07DX005 (ip), vehicle: saline) was 100 % of control and the T/C (endpoint: median tumor weight (est.), dose: 0.62 mg/kg/injection, schedule: Q07DX005 (ip), vehicle: saline) was 116 % of control. The T/C (endpoint: median tumor weight change, dose: 1.56 mg/kg/injection, schedule: Q01DX001 (ip), vehicle: suspension in saline) was 164 % of control, the T/C (endpoint: median tumor weight change, dose: 3.12 mg/kg/injection, schedule: Q01DX001 (ip), vehicle: suspension in saline) was 153 % of control and the T/C (endpoint: median tumor weight change, dose: 6.25 mg/kg/injection, schedule: Q01DX001 (ip), vehicle: suspension in saline) was 116 % of control. The T/C (endpoint: median tumor weight change, dose: 12.5 mg/kg/injection, schedule: Q01DX001 (ip), vehicle: suspension in saline) was 82 % of control and the T/C (endpoint: median tumor weight change, dose: 25.0 mg/kg/injection, schedule: Q01DX001 (ip), vehicle: suspension in saline) was 64 % of control.

In the case of `CCN(CC)CCNc1ccc(C)c2sc3ccccc3c(=O)c12`, the T/C [3] is reported as 156 % of control, the T/C [4] is reported as 198 % of control and the T/C (endpoint: median tumor weight (est.), dose: 50.0 mg/kg/injection, schedule: Q07DX005 (ip), vehicle: saline) is reported as 166 % of control. For the same compound, the T/C (endpoint: median tumor weight (est.), dose: 100.0 mg/kg/injection, schedule: Q07DX005 (ip), vehicle: saline) was 76 % of control and the T/C (endpoint: median tumor weight (est.), dose: 200.0 mg/kg/injection, schedule: Q07DX005 (ip), vehicle: saline) was 42 % of control.

With `CCCCNC(C)C1(O)Cc2c(O)c3c(c(O)c2C(OC2CC(N)C(O)C(C)O2)C1)C(=O)c1c(OC)cccc1C3=O` (stereo unspecified) the T/C (endpoint: median tumor weight (est.), dose: 28.5 mg/kg/injection, schedule: Q07DX005 (ip), vehicle: water) was 100 % of control, the T/C (endpoint: median tumor weight (est.), dose: 42.7 mg/kg/injection, schedule: Q07DX005 (ip), vehicle: water) was 154 % of control and the T/C (endpoint: median tumor weight (est.), dose: 64.0 mg/kg/injection, schedule: Q07DX005 (ip), vehicle: water) was 66 % of control. For the same compound, the T/C (endpoint: median tumor weight (est.), dose: 96.0 mg/kg/injection, schedule: Q07DX005 (ip), vehicle: water) was 20 % of control, the T/C (endpoint: median tumor weight change, dose: 62.5 mg/kg/injection, schedule: Q01DX001 (ip), vehicle: suspension in saline) was 98 % of control and the T/C (endpoint: median tumor weight change, dose: 125.0 mg/kg/injection, schedule: Q01DX001 (ip), vehicle: suspension in saline) was 65 % of control. For the same compound, the T/C (endpoint: median tumor weight change, dose: 250.0 mg/kg/injection, schedule: Q01DX001 (ip), vehicle: suspension in saline) was 74 % of control, the T/C (endpoint: median tumor weight change, dose: 500.0 mg/kg/injection, schedule: Q01DX001 (ip), vehicle: suspension in saline) was 15 % of control and the T/C (endpoint: median tumor weight change, dose: 1000.0 mg/kg/injection, schedule: Q01DX001 (ip), vehicle: suspension in saline) was 3 % of control.

For `Cc1c(-c2ccc(-c3ccccc3F)cc2)nc2ccc(F)cc2c1C(=O)O`, the T/C (endpoint: median tumor weight change, dose: 5.6 mg/kg/injection, schedule: Q01DX005 (ip), vehicle: water) was 53 % of control, the T/C (endpoint: median tumor weight change, dose: 11.25 mg/kg/injection, schedule: Q01DX005 (ip), vehicle: water) was 33 % of control and the T/C (endpoint: median tumor weight change, dose: 19.0 mg/kg/injection, schedule: Q01DX005 (ip), vehicle: water) was 74 % of control. For the same compound, the T/C (endpoint: median tumor weight change, dose: 22.5 mg/kg/injection, schedule: Q01DX005 (ip), vehicle: water) was 29 % of control, the T/C (endpoint: median tumor weight change, dose: 32.4 mg/kg/injection, schedule: Q01DX005 (ip), vehicle: water) was 13 % of control and the T/C (endpoint: median tumor weight change, dose: 45.0 mg/kg/injection, schedule: Q01DX001 (ip), vehicle: water) was 56 % of control. For the same compound, the T/C (endpoint: median tumor weight change, dose: 45.0 mg/kg/injection, schedule: Q01DX005 (ip), vehicle: water) was 24 % of control, the T/C (endpoint: median tumor weight change, dose: 54.0 mg/kg/injection, schedule: Q01DX005 (ip), vehicle: water) was 27 % of control and the T/C (endpoint: median tumor weight change, dose: 90.0 mg/kg/injection, schedule: Q01DX001 (ip), vehicle: water) was 82 % of control. For the same compound, the T/C (endpoint: median tumor weight change, dose: 90.0 mg/kg/injection, schedule: Q01DX005 (ip), vehicle: water) was 15 % of control and 20 % of control.

`O=C1NC(c2ccccc2)N=C2Oc3ccccc3C=C12` (stereo unspecified) was tested, and the T/C (endpoint: median tumor weight (est.), dose: 3.12 mg/kg/injection, schedule: Q07DX005 (ip), vehicle: saline with Tween-80) was 116 % of control, the T/C (endpoint: median tumor weight (est.), dose: 6.25 mg/kg/injection, schedule: Q07DX005 (ip), vehicle: saline with Tween-80) was 50 % of control and the T/C (endpoint: median tumor weight (est.), dose: 12.5 mg/kg/injection, schedule: Q07DX005 (ip), vehicle: saline with Tween-80) was 109 % of control. For the same compound, the T/C (endpoint: median tumor weight (est.), dose: 25.0 mg/kg/injection, schedule: Q07DX005 (ip), vehicle: saline with Tween-80) was 78 % of control and 101 % of control, the T/C [5] was 95 % of control and 115 % of control and the T/C [6] was 63 % of control and 85 % of control.

For `COc1ccc2c(NCCCCCCNc3c4ccccc4nc4cc(OC)ccc34)c3ccccc3nc2c1`, the T/C (endpoint: median tumor weight (est.), dose: 1.25 mg/kg/injection, schedule: Q07DX005 (ip), vehicle: lactic acid) was 77 % of control, the T/C (endpoint: median tumor weight (est.), dose: 2.5 mg/kg/injection, schedule: Q07DX005 (ip), vehicle: lactic acid) was 175 % of control and the T/C (endpoint: median tumor weight (est.), dose: 5.0 mg/kg/injection, schedule: Q07DX005 (ip), vehicle: lactic acid) was 52 % of control.

For `C[n+]1cccc(NC(=O)c2ccc(NC(=O)C34CCC(C(=O)Nc5ccc(C(=O)Nc6ccc[n+](C)c6)cc5)(CC3)CC4)cc2)c1`, the T/C [7] was 57 % of control and 78 % of control (2×) and the T/C [8] was -66 % of control.
